Results taken from patent publication US20090238852A1, “METHODS FOR CONTROLLING INTRACELLULAR CALCIUM LEVELS ASSOCIATED WITH AN ISCHEMIC EVENT” (University of Utah Research Foundation, priority 2008, published 2009).
Like-named read-outs stand apart in the source and are kept apart here.

Legend:
[1] = system: rabbit ventricular myocytes; assay: Intracellular calcium [Ca^++]i in ventricular myocytes during paced metabolic ischemia (PMI), Fluo-3 flow cytometry; assay type: cell-based
Text: Consequently, it prevents intracellular sodium overload and subsequent reverse mode operation of the sodium-calcium exchanger. The effect of 2-O, 3-O desulfated heparin on accumulation of intracellular Ca^++ during ischemia was studied in an adult rabbit ventricular myocyte model previously reported (Boston D R, et al. J Pharmacol Exp Ther 285:716-723, 1998; Li F, et al. J Mol Cell Cardiol 33:2145-2155, 2001). Isolated cardiomyocytes have been validated as reliable models of ischemia (Diaz, R J, Wilson G J. Cardiovasc Res 70:286-296, 2006).
To produce the model, hearts are removed from albino rabbits (2-3 kg) anesthetized with sodium pentobarbital (65 mg/kg IV). The heart was immediately attached to an aorta cannula. Continuous perfusion of the coronary arteries at 37° C. by a pump (Masterflex, Cole-Parmer Instrument Co., Chicago, Ill.) was initiated at a perfusion pressure of 60 mm Hg. The heart was first perfused with nominally Ca^++-free modified Krebs-Ringer bicarbonate buffered solution (MKRBB, pH 7.40, containing in mmol/L: NaCl 126, KCl 4.4, […], MgCl2 1.0, HEPES 24, probenecid 0.5 and glucose 5) for 10 min, immediately followed by 15-25 min of recirculating perfusion with the same solutions containing 0.3 mg/ml collagenase (Type 2, Worthington Biochemical, Freehold, N.J.), 0.4 mg/mL hyaluronidase (Type-S, Sigma-Aldrich, St. Louis, Mo.) and 50 μmol/L CaCl2. The heart was then detached from the cannula, and the left ventricle was minced and transferred to a 50 mL conical tube with the same solution containing 0.24 mg/mL collagenase, 0.02 mg/mL trypsin and 50 μmol/L Ca^++ for a second digestion. The minced tissue was continuously agitated by gassing the solution with 5% CO2 and 95% O2 to help release isolated myocytes. The resulting supernatant was transferred to another conical tube with the same volume of the same solution containing 0.03 mg/mL of trypsin inhibitor (Sigma-Aldrich). The cell suspension was centrifuged at 5×g for 5 minutes. The supernatant was discarded and cells were resuspended in solution with a higher Ca^++ concentration (200 μmol/L) and incubated in a CO2 incubator (5% CO2, 28° C.) to settle down cells by gravity for 10 min. The same procedure was repeated twice to bring up the Ca^++ concentration slowly (500, then 1000 μmol/L). Calcium step-up solutions were made from MKRBB with 2% albumin, 50 μmol/L CaCl2 mixed with the appropriate amount of minimum essential medium (MEM, Gibco Laboratories, Grand Island, N.Y.). At the end of isolation, cells were filtered with a […] to avoid cell clumping during flow cytometry studies. The yield of rod-shaped viable myocytes averaged 50%. Cells were used for experiments within 4 hours after dissociation.
In these studies, intracellular calcium concentration [Ca^++]i was measured by flow cytometry. Measurement of isolated mouse and rabbit ventricular myocyte [Ca^2+]i and [Na^+]i by flow cytometry has been described (Zhang et al., J. Cardiovasc. Pharmacol. 51: 443-449 (2008); Li et al., J. Mol. Cell. Cardiol. 33: 2145-2155 (2001)). [Ca^++]i was measured with the Ca^++ sensitive fluorescent probe, Fluo 3-AM (Molecular Probes, Eugene, Oreg.), using a FACScan (Becton-Dickinson, MA). The cells were exposed to 4 μmol/L Fluo-3 AM for 30 min at 37° C. The cells were then separated into aliquots. After 40 min of wash, the cells were exposed to paced metabolic ischemia (MI) for 45 min at 37° C. Metabolic ischemia was accomplished by incubating cells in a glucose-free MKRBB solution (pH 7.40) containing 2 mmol/L sodium cyanide (NaCN) to impair mitochondrial and glycolytic generation of ATP. To reproduce the situation in the beating ischemic heart, during the period of metabolic ischemia, myocytes were placed in a 5-well chamber with equal volumes of myocyte suspensions from the same heart dissociation placed in each well. The chamber was water bathed to maintain temperature at 37° C. and bubbled with 5% CO2 in air to keep myocytes in suspension. […]

[2] = system: blood coagulation (aPTT, PT, ACT); assay: Phase I single IV bolus study: coagulation tests (aPTT, PT, ACT); assay type: in vivo, human
Method: (§1) A study was performed in 38 volunteer human subjects to assess the safety of escalating bolus doses of 2-O, 3-O desulfated heparin (ODSH). The study was a Phase I, randomized, double-blind, dose-escalation study with a single-day treatment period. Subjects were between the ages of 18 and 45, were not pregnant, and were normal in body weight. They all had normal coagulation function and hemoglobin values at baseline.
(§2) Two subjects also received an injection of fully anticoagulated unfractionated heparin for comparison. ODSH dose groups were run in a series, and safety and tolerance data were evaluated prior to the start of the next dose level (4, 8 12, 16 and 20 mg/kg bolus intravenous doses). Twenty eight (28) subjects randomly received ODSH and 9 subjects were randomized to receive placebo, with an additional two subjects receiving commercially available unfractionated heparin.
(§3) For each bolus dose, ODSH as a 50 mg/mL formulation was diluted with normal saline and a total volume of 50 ml was infused over 15 minutes containing the calculated amount of ODSH the subject was to receive. Placebo consisted of 50 mL of normal saline infused over 15 minutes. For subjects receiving heparin, 5,000 units (approximately 0.5 mg/kg) of heparin was diluted into 50 ml of normal saline and infused over 15 minutes.
Immediately before infusion and beginning 7 minutes after the start of each infusion, blood was drawn at periodic times for 24 hours to monitor the effect of infusion on the following laboratory studies: activated partial thromboplastin time (aPTT); prothrombin time (PT); activated clotting time (ACT); and ODSH plasma level. Serum chemistries and a complete blood count were checked immediately before infusion and at eight (8) and twenty-four (24) hours later. Using values for aPTT and ODSH levels, pharmacokinetic parameters were calculated by noncompartmental methods using a commercial software program (PhAST 2.3-001). […]

[3] = system: platelets with HIT antibody
Method: The second technique employed was flow cytometric platelet analysis. In this functional test, platelets in whole blood are activated by heparin or heparin analog in the presence of heparin antibody in serum from a patient clinically diagnosed with HIT. Using flow cytometry, platelet activation was determined in two manners: by the formation of platelet microparticles and by the increase of platelet surface bound P-selectin.
Specifically, whole blood drawn by careful double-syringe technique was anticoagulated with hirudin (10 μg/ml final concentration). An aliquot of whole blood (50 μL) was immediately fixed in 1 ml 1% paraformaldehyde (gating control). […] Samples were analyzed on an EPICS XL flow cytometer (Beckman-Couter; Hialeah, Fla.) for forward angle (FALS) and side angle light scatter, and for FITC and PE (phycoerythrin) fluorescence. […]
Using the gating control sample, amorphous regions were drawn to include single platelets and platelet microparticles. Platelet microparticles were distinguished from platelets on the basis of their characteristic flow cytometric profile of cell size (FALS) and FITC fluorescence (CD61 platelet marker). […] Data was reported as a percentage of the total number of CD61-positive events analyzed.

[4] = in vivo
Method: as §1, §2, §3
Immediately before infusion and beginning 7 minutes after the start of each infusion, blood was drawn at periodic times for 24 hours to monitor the effect of infusion on the following laboratory studies: activated partial thromboplastin time (aPTT); prothrombin time (PT); activated clotting time (ACT); and ODSH plasma level. Serum chemistries and a complete blood count were checked immediately before infusion and at eight (8) and twenty-four (24) hours later. Using values for aPTT and ODSH levels, pharmacokinetic parameters were calculated by noncompartmental methods using a commercial software program (PhAST 2.3-001). The following pharmacokinetic parameters were calculated: • a) Maximum measured plasma concentration (Cmax); • b) First-order terminal elimination rate constant (Kel), calculated from a semi-log plot of the serum concentration versus time curve; this parameter was calculated by linear least-square regression analysis using the maximum number of points in the terminal log-linear phase (e.g., 3 or more non-zero serum concentrations); • c) Time of the maximum measured drug plasma concentration (tmax); • d) The area under the plasma concentration versus time curve from time 0 to the last observation (AUC 0-t), calculated by the linear trapezoidal method; • e) The area under the plasma concentration versus time curve from time 0 to infinity (AUCinf), which was calculated as the sum of AUC 0-t plus the ratio of the last measurable serum concentration to the elimination rate constant; • f) First-order terminal elimination (t1/2), calculated as 0.693/Kel; • g) Total body clearance (CL), calculated as Dose/AUCinf, and • h) Total volume of distribution (Vdss), calculated as MRT×CL.

**Q.** What does the source list for 2-O, 3-O desulfated heparin [ODSH]?
**A.** effect on myocyte [Ca^2+]i during simulated ischemia ([1]; 45 min P-MI, ODSH 1, 10, 100 μg/mL, FIG. 3): dose-dependent reduction of [Ca^2+]I; further reduction in [Ca^2+]i in the presence of KBR ([1]; ODSH 100 μg/mL with KBR 10 μmol/L, 45 min simulated ischemia, FIG. 4): no significant further reduction in [Ca^2+]i; additional effect on Ca^2+ loading during P-MI in the presence of ranolazine ([1]; ODSH 100 μg/ml with ranolazine 10 μM, FIG. 8): no additional effect on Ca^2+ loading; [Ca^++]i ([1]; PMI 45 min + ODSH 1 μg/mL, n = 7, PMI alone 1133.6 ± 78.4, Hepes 241.9 ± 23.0): 1013.8 ± 69.2 nM; [Ca^++]i ([1]; PMI 45 min + ODSH 10 μg/mL, n = 7, PMI alone 1133.6 ± 78.4): 739.0 ± 63.8 nM; [Ca^++]i ([1]; PMI 45 min + ODSH 100 μg/mL, n = 7, PMI alone 1133.6 ± 78.4): 684.3 ± 66.9 nM; [Ca^++]i ([1]; Table 6: PMI + ODSH 100 μg/mL, n = 7, PMI alone 985.5 ± 42.7, Hepes 269.6 ± 8.3): 688.6 ± 33.4 nM; effect on [Ca^2+]i during P-MI ([1]; each alone: ODSH 100 μg/ml, ranolazine 10 μM, FIG. 8, n = 7): reduced [Ca^2+]i to a similar degree; PT ([2]; IV bolus 4 to 20 mg/kg): increased in a dose-dependent manner; change from baseline in aPTT ([2]; IV bolus 4 to 20 mg/kg, FIG. 16): rapid increase in aPTT over the infusion period in a dose-dependent fashion; mean ACT value at 15 minutes ([2]; ODSH 20 mg/kg IV bolus): 207 s; change from baseline in ACT ([2]; bolus doses of 12-20 mg/kg, FIG. 17): Therapeutic increases in the ACT; platelet microparticle formation versus saline control [3]: no level of platelet microparticle formation above that of the saline control incubations; Mean clearance values, range over the dose groups ([4]; human, iv): 0.172 to 0.257 mL/min/kg; Mean elimination half-life values, range over the dose groups ([4]; human, iv): 1.93 to 2.72 h; Median tmax values, range over the dose groups ([4]; human, iv): 0.37 to 0.88 h; AUC 0-t ([4]; human, iv, 4 mg/kg): 307.2 µg·h/mL; AUCinf ([4]; human, iv, 4 mg/kg): 415.2 µg·h/mL; CL ([4]; human, iv, 4 mg/kg): 0.1709 ± 0.064973 mL/min/kg; Cmax ([4]; human, iv, 4 mg/kg): 130.76 µg/mL; MRT ([4]; human, iv, 4 mg/kg): 3.780 ± 1.6710 h; Vdss ([4]; human, iv, 4 mg/kg): 0.03495 ± 0.011679 L/kg; t1/2 ([4]; human, iv, 4 mg/kg): 2.585 ± 1.1225 h; tmax ([4]; human, iv, 4 mg/kg): 0.47 h; AUC 0-t ([4]; human, iv, 8 mg/kg): 461.9 µg·h/mL; AUCinf ([4]; human, iv, 8 mg/kg): 629.2 µg·h/mL; CL ([4]; human, iv, 8 mg/kg): 0.2147 ± 0.039202 mL/min/kg; Cmax ([4]; human, iv, 8 mg/kg): 163.74 µg/mL; MRT ([4]; human, iv, 8 mg/kg): 2.775 ± 0.6087 h; Vdss ([4]; human, iv, 8 mg/kg): 0.03513 ± 0.00658 L/kg; t1/2 ([4]; human, iv, 8 mg/kg): 1.933 ± 0.4537 h; tmax ([4]; human, iv, 8 mg/kg): 0.37 h; AUC 0-t ([4]; human, iv, 12 mg/kg): 619.1 µg·h/mL; AUCinf ([4]; human, iv, 12 mg/kg): 1086.5 µg·h/mL; CL ([4]; human, iv, 12 mg/kg): 0.1867 ± 0.036203 mL/min/kg; Cmax ([4]; human, iv, 12 mg/kg): 179.28 µg/mL; MRT ([4]; human, iv, 12 mg/kg): 3.894 ± 0.9516 h; Vdss ([4]; human, iv, 12 mg/kg): 0.04212 ± 0.00317 L/kg; t1/2 ([4]; human, iv, 12 mg/kg): 2.724 ± 0.6667 h; tmax ([4]; human, iv, 12 mg/kg): 0.88 h; AUC 0-t ([4]; human, iv, 16 mg/kg): 886.9 µg·h/mL; AUCinf ([4]; human, iv, 16 mg/kg): 1075.8 µg·h/mL; CL ([4]; human, iv, 16 mg/kg): 0.25607 ± 0.067503 mL/min/kg; Cmax ([4]; human, iv, 16 mg/kg): 285.38 µg/mL; MRT ([4]; human, iv, 16 mg/kg): 3.287 ± 1.0560 h; Vdss ([4]; human, iv, 16 mg/kg): 0.04725 ± 0.007944 L/kg; t1/2 ([4]; human, iv, 16 mg/kg): 2.261 ± 0.8548 h; tmax ([4]; human, iv, 16 mg/kg): 0.50 h; AUC 0-t ([4]; human, iv, 20 mg/kg): 1322.1 µg·h/mL; AUCinf ([4]; human, iv, 20 mg/kg): 1638.7 µg·h/mL; CL ([4]; human, iv, 20 mg/kg): 0.20877 ± 0.003483 mL/min/kg; Cmax ([4]; human, iv, 20 mg/kg): 366.73 µg/mL; MRT ([4]; human, iv, 20 mg/kg): 3.639 ± 0.6670 h; Vdss ([4]; human, iv, 20 mg/kg): 0.04556 ± 0.008256 L/kg; t1/2 ([4]; human, iv, 20 mg/kg): 2.637 ± 0.4765 h; tmax ([4]; human, iv, 20 mg/kg): 0.50 h; ODSH plasma levels produced [4]: > 300 µg/mL
